Laboratory results published in ChEMBL document CHEMBL5038654, “Discovery of Spiro-azaindoline Inhibitors of Hematopoietic Progenitor Kinase 1 (HPK1)” (ACS Med Chem Lett, 2022).

Assays:
Cytochrome P450 3A4 = Cytochrome P450 3A4 (Homo sapiens, UniProt P08684); assay: Inhibition of CYP3A4 in human liver microsomes using testosterone as substrate by TDI- high-throughput based mass spectrometry method; type: ADME
[1] = target: T1, Mitogen-activated protein kinase kinase kinase kinase 1 (Homo sapiens, UniProt Q92918); assay: Inhibition of HPK1 (unknown origin) followed by anti-GST antibody incubated for 60 mins measured after 1 hr by TR-FRET based LanthaScreen Eu-Kinase binding assay
[2] = Metabolic stability in human liver microsomes assessed as intrinsic clearance followed by substrate addition incubated for 30 mins by LC-MS/MS analysis; type: ADME, Microsome; settings: read-out: CLH
[3] = Metabolic stability in mouse liver microsomes assessed as intrinsic clearance followed by substrate addition incubated for 30 mins by LC-MS/MS analysis; type: ADME, Microsome; settings: read-out: CLH
[4] = Metabolic stability in rat liver microsomes assessed as intrinsic clearance followed by substrate addition incubated for 30 mins by LC-MS/MS analysis; type: ADME, Microsome; settings: read-out: CLH
[5] = Apparent permeability across apical to basolateral side in dog MDCK1 cells at 10 uM by LC-MS/MS analysis; type: ADME, cell-based, Canis lupus familiaris; settings: for Papp A→B at 10 µM: MDCK
[6] = target: T1, Mitogen-activated protein kinase kinase kinase kinase 1; assay: Inhibition of HPK1 in human Jurkat E6.1 cells assessed as SLP76 phosphorylation incubated for 30 mins followed by anti-CD3, biotinylated anti-SLP76 and TMB substrate addition measured after 3 hrs by ELISA assay; type: cell-based
[7] = target: T1, Mitogen-activated protein kinase kinase kinase kinase 1; assay: Inhibition of HPK1 (unknown origin) preincubated for 30 mins with compound followed by Biotin-SLP-76 substrate in presence of ATP incubated for 60 mins measured after 1 hr by TR-FRET based HTRF enzymatic assay
[8] = Volume of distribution in female C57BL/6 mouse at 1 mg/kg, iv administered as bolus dose measured upto 24 hrs by LC-MS/MS analysis; type: ADME, organism-based; settings: in vivo
[9] = Oral bioavailability in female C57BL/6 mouse at 25 mg/kg measured upto 24 hrs by LC-MS/MS analysis; type: ADME, organism-based; settings: in vivo
T-cell line = assay: Effects of compound on IL-2 production in human pan T-cells followed by anti-CD3/CD28-stimulation assessed as increase in IL-2 level incubated for 30 mins by ELISA method; type: functional, cell-based; settings: 0.5 h
[10] = Metabolic stability in human hepatocytes assessed as hepatic clearance at 1 uM measured upto 3 hrs by LC-MS/MS analysis; type: ADME, cell-based, Hepatocyte
[11] = Metabolic stability in rat hepatocytes assessed as hepatic clearance; type: ADME, cell-based, Hepatocyte; design: dose or concentration left out as unconfirmed
[12] = Blood clearance in female C57BL/6 mouse at 1 mg/kg, iv administered as bolus dose measured upto 24 hrs by LC-MS/MS analysis; type: ADME, organism-based; settings: whole blood
[13] = Metabolic stability in mouse hepatocytes assessed as hepatic clearance; type: ADME, cell-based, Hepatocyte; design: dose or concentration left out as unconfirmed

T1 sequence (Q92918 whole entry): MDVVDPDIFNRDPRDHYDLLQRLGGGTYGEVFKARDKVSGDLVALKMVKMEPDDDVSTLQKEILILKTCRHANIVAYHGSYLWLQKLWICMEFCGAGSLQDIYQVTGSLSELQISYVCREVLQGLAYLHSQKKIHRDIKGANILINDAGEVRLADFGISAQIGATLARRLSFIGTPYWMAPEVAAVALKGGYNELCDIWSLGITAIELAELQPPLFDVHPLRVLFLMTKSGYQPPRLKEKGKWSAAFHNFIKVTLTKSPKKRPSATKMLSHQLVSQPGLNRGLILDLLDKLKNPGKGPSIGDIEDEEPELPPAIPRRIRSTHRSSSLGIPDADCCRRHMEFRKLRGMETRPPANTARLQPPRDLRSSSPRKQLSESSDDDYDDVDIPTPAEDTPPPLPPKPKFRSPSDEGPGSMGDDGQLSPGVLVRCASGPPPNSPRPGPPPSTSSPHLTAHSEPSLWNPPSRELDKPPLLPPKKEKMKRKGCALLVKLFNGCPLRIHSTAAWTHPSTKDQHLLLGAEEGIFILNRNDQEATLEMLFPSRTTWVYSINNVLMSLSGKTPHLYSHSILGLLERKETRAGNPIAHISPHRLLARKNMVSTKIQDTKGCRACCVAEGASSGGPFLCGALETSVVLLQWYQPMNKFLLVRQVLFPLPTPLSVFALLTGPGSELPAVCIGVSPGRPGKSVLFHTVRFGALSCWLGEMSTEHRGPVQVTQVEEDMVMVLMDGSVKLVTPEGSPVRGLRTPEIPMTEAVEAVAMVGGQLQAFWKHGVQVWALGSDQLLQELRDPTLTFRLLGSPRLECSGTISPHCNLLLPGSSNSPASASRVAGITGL
Sequence of Cytochrome P450 3A4 (P08684 whole entry): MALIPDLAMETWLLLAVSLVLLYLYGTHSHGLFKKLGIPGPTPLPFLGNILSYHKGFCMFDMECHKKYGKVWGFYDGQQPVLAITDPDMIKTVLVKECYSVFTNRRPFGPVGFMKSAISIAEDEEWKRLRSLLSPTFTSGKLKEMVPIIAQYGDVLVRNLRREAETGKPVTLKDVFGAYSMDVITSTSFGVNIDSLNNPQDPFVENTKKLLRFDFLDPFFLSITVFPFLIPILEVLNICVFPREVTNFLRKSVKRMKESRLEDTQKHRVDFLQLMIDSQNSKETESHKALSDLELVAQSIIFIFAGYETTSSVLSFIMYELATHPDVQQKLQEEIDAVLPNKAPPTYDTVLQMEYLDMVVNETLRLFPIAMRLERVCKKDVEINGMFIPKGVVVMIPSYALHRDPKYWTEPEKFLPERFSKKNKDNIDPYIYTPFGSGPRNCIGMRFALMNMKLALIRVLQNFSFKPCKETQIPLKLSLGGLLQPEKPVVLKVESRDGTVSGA

Row | SMILES | IC50 (Cytochrome P450 3A4) | Ki [1] | Papp A→B at 10 µM [5] | IC50 [6] | further results
1 | CN(C)C(=O)c1cc(-c2cnc3c(c2)C2(CCCC2)CN3)ccc1N | 9800 nM | 28 nM |  |  | 
2 | CN(C)C(=O)c1c(N)ccc(-c2cnc3c(c2Cl)[C@]2(CC[C@](C)(C#N)CC2)CN3)c1F |  |  | 26 ×10⁻⁶ cm/s | 7900 nM | 
3 | CN(C)C(=O)c1c(N)ccc(-c2cnc3c(c2Cl)C2(CCC2)CN3)c1F | > 10000 nM |  |  |  | 
4 | Cc1c(-c2ccc(N)c(C(=O)N(C)C)c2F)cnc2c1C1(CC1)CN2 | 6500 nM | 43 nM |  |  | 
5 | CN(C)C(=O)c1c(N)ccc(-c2cnc3c(c2Cl)[C@@]2(CC[C@@](C)(C(N)=O)C2)CN3)c1F |  | 85 nM | 0.4 ×10⁻⁶ cm/s | > 25000 nM | 
6 | CN(C)C(=O)c1c(N)ccc(-c2cnc3c(c2Cl)[C@]2(CC[C@@]4(CCCCNC4=O)C2)CN3)c1F |  |  | 6.5 ×10⁻⁶ cm/s | 1200 nM | Ki [7]: 7.2 nM
7 | CN(C)C(=O)c1c(N)ccc(-c2cnc3c(c2Cl)[C@]2(CC[C@](C)(C(N)=O)C2)CN3)c1F |  | 0.8 nM |  | 440 nM | Vd [8]: 1.9 L/kg; bioavailability [9]: 13%; EC50 (T-cell line): 1560 nM; CLhep predicted at 1 µM [10]: 9.5 mL/min/kg; CLhep predicted [11]: 18 mL/min/kg; clearance [12]: 57 mL/min/kg; Papp ([5]; mdck1, 10 µM): 0.3 10^-6 cm/s; CLhep predicted [13]: 33 mL/min/kg
8 | CN(C)C(=O)c1c(N)ccc(-c2cnc3c(c2Cl)[C@]2(CC[C@](C)(O)CC2)CN3)c1F |  | 8.2 nM | 5.7 ×10⁻⁶ cm/s | 3000 nM | 
9 | CN(C)C(=O)c1c(N)ccc(-c2cnc3c(c2Cl)[C@]2(CC[C@@]4(CCCNC4=O)C2)CN3)c1F |  |  | 7.1 ×10⁻⁶ cm/s | 1700 nM | Ki [7]: 6.5 nM
10 | CN(C)C(=O)c1cc(-c2cnc3c(c2)C2(CCC2)CN3)ccc1N | > 10000 nM | 66 nM |  |  | 
11 | CN(C)C(=O)c1cc(-c2cnc3c(c2)C2(CC2)CN3)ccc1N | > 10000 nM | 33 nM |  |  | 
12 | CNC(=O)[C@H]1CC[C@@]2(CNc3ncc(-c4ccc(N)c(C(=O)N(C)C)c4F)c(Cl)c32)C1 (racemic) |  | 63 nM | 0.8 ×10⁻⁶ cm/s | 7400 nM | 
13 | CN(C)C(=O)c1c(N)ccc(-c2cnc3c(c2Cl)[C@]2(CC[C@](C)(C(N)=O)C2)CN3)c1F (racemic) |  | 2 nM | 0.3 ×10⁻⁶ cm/s | 1100 nM | 
14 | CN(C)C(=O)c1c(N)ccc(-c2cnc3c(c2Cl)[C@]2(CC[C@H](c4ncn[nH]4)C2)CN3)c1F (racemic) |  | 14 nM | 0.4 ×10⁻⁶ cm/s | 15000 nM | 
15 | CN(C)C(=O)c1c(N)ccc(-c2cnc3c(c2Cl)[C@]2(CC[C@H](O)C2)CN3)c1F (racemic) |  |  | 5 ×10⁻⁶ cm/s | 5000 nM | 
16 | CN(C)C(=O)c1c(N)ccc(-c2cnc3c(c2Cl)[C@]2(CC[C@](C)(C#N)C2)CN3)c1F (racemic) |  | 11 nM | 21 ×10⁻⁶ cm/s | 1700 nM | 
17 | CN(C)C(=O)c1c(N)ccc(-c2cnc3c(c2Cl)[C@]2(CC[C@](C)(O)C2)CN3)c1F (racemic) |  | 8.1 nM | 4.1 ×10⁻⁶ cm/s | 2000 nM | 

Now from value to compound, other results behind:

Row | IC50 (Cytochrome P450 3A4) | Ki [1] | Papp A→B at 10 µM [5] | IC50 [6] | SMILES | further results
18 | 1600 nM | 3.3 nM |  |  | CCc1c[nH]c2ncc(-c3ccc(N)c(C(=O)N(C)C)n3)cc12 | predicted hepatic clearance [2]: 17 mL/min/kg; predicted hepatic clearance [3]: 81 mL/min/kg; predicted hepatic clearance [4]: 28 mL/min/kg
19 |  | 2.6 nM |  |  | CCc1c[nH]c2ncc(-c3ccc(N)c(C(=O)N(C)C)c3)c(Cl)c12 | 
20 | 1700 nM | 5.2 nM |  |  | CCc1c[nH]c2ncc(-c3cccc(C(=O)N(C)C)c3)cc12 | predicted hepatic clearance [2]: 18 mL/min/kg; predicted hepatic clearance [3]: 84 mL/min/kg; predicted hepatic clearance [4]: 43 mL/min/kg
21 |  | 2.8 nM |  |  | CCc1c[nH]c2ncc(-c3ccc(N)c(C(=O)N(C)C)c3)c(CC)c12 | 
22 |  | 0.4 nM |  |  | COc1ccccc1-c1c[nH]c2ncc(-c3ccc(N)c(C(=O)N(C)C)c3)cc12 | 
23 |  | 2.4 nM |  |  | CCc1c[nH]c2ncc(-c3ccc(N)c(C(=O)N(C)C)c3)c(C)c12 | 
24 | 200 nM | 2.7 nM |  |  | CCc1c(Cl)[nH]c2ncc(-c3ccc(N)c(C(=O)N(C)C)c3)cc12 | 
25 | 500 nM | 2.1 nM |  |  | CCc1c[nH]c2ncc(-c3ccc(N)c(C(=O)N(C)C)c3)cc12 | predicted hepatic clearance [2]: 12 mL/min/kg; predicted hepatic clearance [3]: 80 mL/min/kg; predicted hepatic clearance [4]: 25 mL/min/kg
26 | 700 nM | 0.47 nM |  |  | CCc1c[nH]c2ncc(-c3ccc(N)c(C(=O)N(C)C)c3F)cc12 | predicted hepatic clearance [2]: 16 mL/min/kg; predicted hepatic clearance [3]: 80 mL/min/kg; predicted hepatic clearance [4]: 37 mL/min/kg
27 | 800 nM | 2.5 nM | 23 ×10⁻⁶ cm/s | 1500 nM | CN(C)C(=O)c1c(N)ccc(-c2cnc3c(c2Cl)C2(CCCC2)CN3)c1F | 
28 |  | 1.5 nM |  |  | CN(C)C(=O)c1cc(-c2cnc3[nH]ccc3c2)ccc1N | 
29 |  | 1.8 nM | 0.2 ×10⁻⁶ cm/s | 14000 nM | CN(C)C(=O)c1c(N)ccc(-c2cnc3c(c2Cl)[C@]2(CC[C@H](C(N)=O)C2)CN3)c1F (racemic) | 
